Values quoted from earlier work as cited in patent publication US20080305994A1, “Pharmaceutical Compositions and Method for Treating, Reducing, Ameliorating, Alleviating, or Preventing Dry Eye” (priority 2007, published 2008).

What was measured:
[1] = test system: lipopolysaccharide ("LPS")-induced leukocyte recruitment within pulmonary arterioles, capillaries, and venules; conditions: rabbits, inhibition of PARP
[2] = test system: intercellular adhesion molecule 1 ("ICAM-1"); conditions: rabbits; inhibition of PARP

NC(=O)c1cccc(N)c1 [3-aminobenzamide]
LPS-induced leukocyte recruitment within pulmonary arterioles, capillaries, and venules [1]: reduced | expression of intercellular adhesion molecule 1 (ICAM-1) [2]: suppressed
